Where two headings read alike, the source gives them in different places.
Columns and labels:
Bt toxin (Cry1Ac) = test system: Bt toxin (Cry1Ac)
Experimental: An immunoenzymatic assay was used to determine the Bt levels at different stages of plant development. • a) Measured Bt toxin values; ordinate: Bt expressed as ppm; abscissa: days of plant culture and where different, plant tissue.
The assay was carried out on samples collected at different plant development stages, which were: 4, 35, 60, 85 days after sowing.
The ELISA Cry1Ab/Cry1Ac Plate Kit was obtained from Envirologix (Portland, Maine—USA). The assay was performed according to the Envirologix protocol with the following modifications: • 1. The cotton freeze-dried powder got from leaf or cotyledon tissues was used instead of the fresh and whole leaf tissue. • 2. The Bt toxin extraction from the cotton freeze-dried powder was done with a sample/buffer ratio of 1:25 (w/v). • 3. The extraction was made leaving the sample in the buffer for at least 4 hours at room temperature, instead of using the Envirologix Disposable Tissue Extractor. The extract was then clarified by centrifugation at 5,000×g for 5 min at room temperature.
Cotton seeds of the cv. Sicala V2i were previously rinsed in distilled water and then placed in equal number in suitable plastic boxes containing settled and sterile sand. Seeds were watered with equal volumes of distilled water and the culture boxes were then covered with a plastic film to avoid evaporation during germination, which was carried out in the dark for 4 days at 30° C. […] After 4 days, these sprouts were collected for testing, whereas the other sprouts were moved in suitable pots and located in the greenhouse at 24° C. during the day and 20° C. in the night.
Treatments were given out vaporizing the diluted formulation on the plants taking care to treat both leaves sides.
Two days after each treatment, a sample of the treated plants, and the correspondent controls, were collected and all leaves were frozen in liquid nitrogen and freeze dried. After this process, the material was powdered in a pestle and then stored in a dry box at room temperature.

[1] = test system: carboxypeptidase activity in cotton sprouts; settings: for absorbance at 280 nm, Exp. n° 1, PBO Treated Cotton Sprouts / absorbance at 280 nm, Exp. n° 2, PBO Treated Cotton Sprouts / absorbance at 280 nm, Mean, PBO Treated Cotton Sprouts / Carboxypeptidase Activity (U), PBO Treated Cotton Sprouts: pH 6.5; for absorbance at 280 nm, Exp. n° 1, PBO Treated Cotton Sprouts / absorbance at 280 nm, Exp. n° 2, PBO Treated Cotton Sprouts / absorbance at 280 nm, Mean, PBO Treated Cotton Sprouts / % difference of carboxypeptidase activity, treated vs untreated / Δ U (carboxypeptidase activity, untreated vs PBO treated) / Carboxypeptidase Activity (U), PBO Treated Cotton Sprouts: 4th day of germination, PBO 1% w/v
Experimental: The extent of proteolytic activity in cotton sprouts was measured at 30′, 60′, 90′ and […] after suspension of the acetonic powder in aqueous buffer at pH 6.5 by determining the absorbance at 280 nm in a quartz cuvette, after protein precipitation with TCA and removal by centrifugation.
Each series of analysis was performed in duplicate. The comparison between the values of carboxypeptidase activity of treated and untreated samples was done using the average value of each series of analysis.
The basic idea was to “freeze” the physiologic protein hydrolysis enzymatic activity and to re-establish the process simply solubilizing the proteolytic enzymatic system in suitable buffers, which were 0.1 M phosphate pH 6.5 and 0.1 M tris-HCl pH 7.7, for evaluating both the carboxypeptidase and the endopeptidase activities according to the method described by Hile et al. 1972; Funkhouser et al. 1980.
Cotton seeds (cv. Carmela) were obtained from “Semillas Battle”, Barcelona (E).
The seeds were previously rinsed in tap water and then imbibed with aeration in distilled water over night (Funkhouser, E. A. et al., Z. Pflanzenphysiol., 1980, 100, 319-324).
The plastic boxes containing seeds were covered by a plastic film and placed in a germinator in the dark for 4 days at 30° C. as described in Hile, J. N. and Dure, L. S. J. Biol. Chem., 1972, 247: 5034-5040.
The cotton sprouts of 4 days were collected and frozen in liquid nitrogen and freeze dried (Hile et al. 1972). After this process, the material was crushed in a pestle and freed from fibrous material and settled up to obtain a pretty homogeneous meal of about 0.5 mesh.
The meals were defatted using n-hexane (1:10 w/v) at room temperature and then treated with acetone at −20° C. to remove pigments and polyphenolic compounds, in this case mainly gossypol. The powders obtained were stored in a dry box at room temperature.
The acetonic powder (30 mg) was suspended in buffer (4 ml) and incubated at 37° C. for 30, 60, 90, 120 minutes. The proteolysis was stopped adding 1 ml of 12% trichloroacetic acid. In this case, the buffer used was 0.1 M phosphate pH 6.5 (Hile et al. 1972). The control was a suspension of the same sample prepared in the same way but, in this case, it was immediately deactivated, adding 1 ml of trichloroacetic acid. The trials with treated and untreated samples were carried out at the same time.
Proteins were precipitated with trichloroacetic acid and then removed by filtration, before with Whatman paper n. 4 and then by micro-filtration (Orange Scientific Braine I'Alleud, Belgium (Ø0.2 μm)). Finally, the hydrolyzed protein samples were analyzed as clear solutions by determining the absorbance at 280 nm in a quartz cuvette.
Each series of analysis was performed twice. The comparison between the values of carboxypeptidase activity of treated and untreated samples was done using the average value of each series of analysis.

[2] = Growth stage 4 days (plantlets)
[3] = Growth stage 35 days (cotyledons)
[4] = Time 0 (immediately deactivated)

CCCCOCCOCCOCc1cc2c(cc1CCC)OCO2 [PBO, 5-[[2-(2-Butoxyethoxy)ethoxy]methyl]-6-propyl-1,3-benzodioxole]
Bt content in PBO-treated samples vs untreated (Bt toxin (Cry1Ac); 35, 60, 85 days after planting): significant lower Bt content | Bt content in PBO-treated samples vs untreated (Bt toxin (Cry1Ac); 4 days): no difference | %: treated − control (Cry1Ac) (Bt toxin (Cry1Ac); [2]): −4.823% | Cry1Ac ppm, cv V2i PBO treated (Bt toxin (Cry1Ac); [2]): 44.60 ppm | Δ: treated − control (Cry1Ac) (Bt toxin (Cry1Ac); [2]): −2.26 ppm | %: treated − control (Cry1Ac) (Bt toxin (Cry1Ac); [3]): 9.149% | Cry1Ac ppm, cv V2i PBO treated (Bt toxin (Cry1Ac); [3]): 66.57 ppm | Δ: treated − control (Cry1Ac) (Bt toxin (Cry1Ac); [3]): 5.58 ppm | %: treated − control (Cry1Ac) (Bt toxin (Cry1Ac); Growth stage 35 days (leaves)): 38.356% | Cry1Ac ppm, cv V2i PBO treated (Bt toxin (Cry1Ac); Growth stage 35 days (leaves)): 45.45 ppm | Δ: treated − control (Cry1Ac) (Bt toxin (Cry1Ac); Growth stage 35 days (leaves)): 12.6 ppm | %: treated − control (Cry1Ac) (Bt toxin (Cry1Ac); Growth stage 60 days (leaves)): 16.629% | Cry1Ac ppm, cv V2i PBO treated (Bt toxin (Cry1Ac); Growth stage 60 days (leaves)): 31.07 ppm | Δ: treated − control (Cry1Ac) (Bt toxin (Cry1Ac); Growth stage 60 days (leaves)): 4.43 ppm | %: treated − control (Cry1Ac) (Bt toxin (Cry1Ac); Growth stage 85 days (leaves)): 13.236% | Cry1Ac ppm, cv V2i PBO treated (Bt toxin (Cry1Ac); Growth stage 85 days (leaves)): 31.91 ppm | Δ: treated − control (Cry1Ac) (Bt toxin (Cry1Ac); Growth stage 85 days (leaves)): 3.73 ppm | amount of transgenic toxin after PBO treatment (Bt toxin (Cry1Ac); cotton transgenic for the Bt CryI protein): higher than in transgenic untreated plants | proteolytic activity related to carboxypeptidase in treated samples ([1]; FIG. 4, treated vs untreated cotton sprouts): lower than in the untreated ones | absorbance at 280 nm, Exp. n° 1, PBO Treated Cotton Sprouts [1, 4]: 0.632 | absorbance at 280 nm, Exp. n° 2, PBO Treated Cotton Sprouts [1, 4]: 0.729 | absorbance at 280 nm, Mean, PBO Treated Cotton Sprouts [1, 4]: 0.68 | % difference of carboxypeptidase activity, treated vs untreated ([1]; Time 30′): 55.7% | Δ U (carboxypeptidase activity, untreated vs PBO treated) ([1]; Time 30′): 0.083 U | Carboxypeptidase Activity (U), PBO Treated Cotton Sprouts ([1]; Time 30′): 0.066 U | absorbance at 280 nm, Exp. n° 1, PBO Treated Cotton Sprouts ([1]; Time 30′): 0.730 | absorbance at 280 nm, Exp. n° 2, PBO Treated Cotton Sprouts ([1]; Time 30′): 0.763 | absorbance at 280 nm, Mean, PBO Treated Cotton Sprouts ([1]; Time 30′): 0.746 | % difference of carboxypeptidase activity, treated vs untreated ([1]; Time 60′): 39.3% | Δ U (carboxypeptidase activity, untreated vs PBO treated) ([1]; Time 60′): 0.081 U | Carboxypeptidase Activity (U), PBO Treated Cotton Sprouts ([1]; Time 60′): 0.125 U | absorbance at 280 nm, Exp. n° 1, PBO Treated Cotton Sprouts ([1]; Time 60′): 0.752 | absorbance at 280 nm, Exp. n° 2, PBO Treated Cotton Sprouts ([1]; Time 60′): 0.858 | absorbance at 280 nm, Mean, PBO Treated Cotton Sprouts ([1]; Time 60′): 0.805 | % difference of carboxypeptidase activity, treated vs untreated ([1]; Time 90′): 43.5% | Δ U (carboxypeptidase activity, untreated vs PBO treated) ([1]; Time 90′): 0.087 U | Carboxypeptidase Activity (U), PBO Treated Cotton Sprouts ([1]; Time 90′): 0.113 U | absorbance at 280 nm, Exp. n° 1, PBO Treated Cotton Sprouts ([1]; Time 90′): 0.880 | absorbance at 280 nm, Exp. n° 2, PBO Treated Cotton Sprouts ([1]; Time 90′): 0.838 | absorbance at 280 nm, Mean, PBO Treated Cotton Sprouts ([1]; Time 90′): 0.859 | % difference of carboxypeptidase activity, treated vs untreated ([1]; Time 120′): 61.0% | Δ U (carboxypeptidase activity, untreated vs PBO treated) ([1]; Time 120′): 0.158 U | Carboxypeptidase Activity (U), PBO Treated Cotton Sprouts ([1]; Time 120′): 0.101 U | absorbance at 280 nm, Exp. n° 1, PBO Treated Cotton Sprouts ([1]; Time 120′): 0.775 | absorbance at 280 nm, Exp. n° 2, PBO Treated Cotton Sprouts ([1]; Time 120′): 0.787 | absorbance at 280 nm, Mean, PBO Treated Cotton Sprouts ([1]; Time 120′): 0.781

— US8017557B2, “Benzodioxole derivatives as modulators of proteolytic activity in plants” (Endura S.p.A., priority 2002, dated 2011)
